This note sets out measurements from ChEMBL document CHEMBL3886561, “Pyridine-and pyrazine derivatives” (2016).

The target of assay [1] is T1, Serine/threonine-protein kinase TBK1 (Homo sapiens, UniProt Q9UHD2).
T1 sequence (Q9UHD2 whole entry): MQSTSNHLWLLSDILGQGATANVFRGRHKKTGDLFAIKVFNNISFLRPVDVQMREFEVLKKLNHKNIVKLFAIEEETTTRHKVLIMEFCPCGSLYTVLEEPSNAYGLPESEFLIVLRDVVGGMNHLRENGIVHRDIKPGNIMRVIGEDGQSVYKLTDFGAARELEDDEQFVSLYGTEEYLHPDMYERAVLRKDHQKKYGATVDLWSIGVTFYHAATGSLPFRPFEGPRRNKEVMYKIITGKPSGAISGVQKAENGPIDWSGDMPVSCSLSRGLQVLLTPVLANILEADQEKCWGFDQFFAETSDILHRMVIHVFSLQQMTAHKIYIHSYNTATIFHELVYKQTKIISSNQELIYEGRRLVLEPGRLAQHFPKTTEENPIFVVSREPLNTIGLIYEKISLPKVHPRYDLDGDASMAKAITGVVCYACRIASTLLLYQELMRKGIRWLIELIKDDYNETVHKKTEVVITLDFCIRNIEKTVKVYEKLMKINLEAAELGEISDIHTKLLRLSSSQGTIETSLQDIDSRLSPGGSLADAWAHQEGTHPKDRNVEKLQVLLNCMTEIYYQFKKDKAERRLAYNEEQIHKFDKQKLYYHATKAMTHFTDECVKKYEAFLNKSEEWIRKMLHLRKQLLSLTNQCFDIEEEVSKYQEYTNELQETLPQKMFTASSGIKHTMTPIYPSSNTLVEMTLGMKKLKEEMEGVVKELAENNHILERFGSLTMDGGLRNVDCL
Description: TBK1 : The kinase assay is performed as 384-well Flashplate assay (for e.g. Topcount measurement. 0.6 nM TANK binding kinase (TBK1), 800 nM biotinylated MELK-derived peptide (Biotin-Ah-Ah-[…]) SEQ ID NO: 2 and 10 uM ATP (spiked with 0.25 uCi 33P-ATP/well) are incubated in a total volume of 50 ul (10 mM MOPS, 10 mM Mg-acetat, 0.1 mM EGTA, 1 mM DTT, 0.02% Brij35, 0.1% BSA, pH 7.5) with or without test compound for 120 Min at 30° C. The reaction is stopped with 25 ul 200 mM EDTA. After 30 Min at room temperature the liquid is removed and each well washed thrice with 100 ul 0.9% sodium chloride solution.

In assay [2] the target is T2, Inhibitor of nuclear factor kappa-B kinase subunit epsilon (Homo sapiens, UniProt Q14164).
T2 sequence (Q14164 whole entry): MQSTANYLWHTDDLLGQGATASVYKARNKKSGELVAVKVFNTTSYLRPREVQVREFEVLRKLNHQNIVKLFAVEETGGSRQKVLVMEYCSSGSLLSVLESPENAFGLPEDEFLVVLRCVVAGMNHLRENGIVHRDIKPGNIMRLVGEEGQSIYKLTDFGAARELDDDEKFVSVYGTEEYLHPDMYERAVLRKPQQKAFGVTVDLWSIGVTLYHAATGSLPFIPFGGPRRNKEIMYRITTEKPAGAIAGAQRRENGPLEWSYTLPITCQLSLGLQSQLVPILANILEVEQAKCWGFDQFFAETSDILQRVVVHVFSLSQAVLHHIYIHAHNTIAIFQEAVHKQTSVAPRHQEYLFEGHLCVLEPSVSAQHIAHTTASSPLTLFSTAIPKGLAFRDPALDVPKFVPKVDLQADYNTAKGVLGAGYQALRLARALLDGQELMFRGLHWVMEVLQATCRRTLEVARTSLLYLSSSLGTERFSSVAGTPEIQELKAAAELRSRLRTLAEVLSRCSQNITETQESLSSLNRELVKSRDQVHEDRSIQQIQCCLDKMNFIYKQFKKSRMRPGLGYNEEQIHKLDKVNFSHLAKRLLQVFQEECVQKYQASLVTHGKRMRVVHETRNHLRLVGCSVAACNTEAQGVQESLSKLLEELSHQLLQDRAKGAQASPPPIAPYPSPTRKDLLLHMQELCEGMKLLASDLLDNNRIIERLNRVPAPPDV
Description: IKKepsilon Flashplate Assay: The kinase assay is performed either as 384-well Flashplate assay (for e.g. Topcount measurement). 1 nM IKKepsilon, 800 nM biotinylated IkappaBalpha(19-42) peptide (Biotin-C6-C6-[…]) SEQ ID NO: 1 and 10 uM ATP (spiked with 0.3 uCi 33P-ATP/well) are incubated in a total volume of 50 ul (10 mM MOPS, 10 mM Mg-acetat, 0.1 mM EGTA, 1 mM Dithiothreitol,0.02% Brij35, 0.1% BSA, 0.1% BioStab, pH 7.5) with or without test compound for 2 hours at 30° C. The reaction is stopped with 25 ul 200 mM EDTA. After 30 Min at room temperature the liquid is removed and each well washed thrice with 100 ul 0.9% sodium chloride solution. Non-specific reaction is determined in presence of 3 uM MSC2119074 (BX-795). Radioactivity is measured with Topcount (PerkinElmer).

Regarding `Nc1ncc(-c2cccc(C(=O)O)c2)cc1C(=O)Nc1ccncc1`, the half-maximal inhibitory concentration (IC50) in assay [1] is 1100 nM; in assay [2] it was 3200 nM.

What is called IC50 is the concentration needed to halve the response being measured.
